Assay results published in patent publication US10561618B2, “Orally available pharmaceutical formulation suitable for improved management of movement disorders” (Contera Pharma ApS, priority 2012, dated 2020).
Each block holds one molecule with its values, some of them ahead of it.

What was measured:
Parkinson's disease = settings: cited from earlier work
[1] = Pharmacokinetic profiling of the fixed dose combination product; format: in vivo; settings: cynomolgus monkeys, oral; for Time of maximum plasma concentration: one buspirone (IR)/zolmitriptan (CR) 10 mg/1 mg tablet (batch 0614/2012), n=4
Text: Four non-naïve male cynomolgus monkeys (3.5 to 7 kg; Hainan Jingang Laboratory Animal Co. Ltd.) were used to evaluate the pharmacokinetics of the fixed dose combination product of the present invention. Animals were individually housed in stainless-steel mesh cages during in-life in accordance with the National Research Council “Guide for the Care and Use of Laboratory Animals” and fed twice daily with 120 g of Certified Monkey Diet daily (Beijing Vital Keao Feed Co., Ltd. Beijing, P. R. China). At test occasion, animals were fed the day before at 3:30 to 4:00 pm and the remaining food removed after approximately 1 to 1.5 hours of feeding (at 5:00 pm). Food was withheld until 4-hour post-dosage. The study was conducted in compliance with the Animal Welfare Act, the Guide for the Care and Use of Laboratory Animals, and the Office of Laboratory Animal Welfare (OLAW).
Each monkey was dosed one buspirone hydrochloride (IR)/zolmitriptan (CR) 10 mg/1 mg combination product (batch 0614/2012) orally using tablet gun, placing one tablet beyond the root of tongue. Subsequently, the animals' throat was massaged to aid passage of the tablet down the esophagus and 5-10 mL drinking water injected into its mouth using a syringe. After administration of drinking water, the animals' jaw was checked to see if the tablet was swallowed.
Blood samples were draw from a peripheral vessel from restrained, non-sedated animals at the following time points: pre-dose, 15, 30, 60 min, 2, 4, 8, 12 and 24 h post-dose into (K2) EDTA-coated tubes. Plasma was obtained from the blood samples by centrifugation (3,000×g for 10 minutes at 2 to 8° C.) within one hour of collection and stored frozen in a freezer at −70° C. until bio-analysis.
Analytes were extracted from plasma by mixing 200 μL 0.1% formic acid (FA) in 50% acetonitrile (ACN)/methanol (MeOH) containing 100 ng/mL Labetalol as internal standard with 50 μL plasma sample, followed by centrifugation (4000 rpm for 20 min).
Subsequently, 100 μL of supernatant was removed and mixed with 150 μL 0.1% FA in 25% MeOH/Water, vortexed 10 min and centrifuged for 10 min at 4000 rpm. Chromatographic separation from other constituents of the sample was achieved by ultra-performance liquid chromatography (Acquity, Waters), followed by tandem mass spectrometry (MS/MS) detection (API 4000, AB Sciex Instruments), injecting 20 μL sample. The analytes were separated by an ACE 5 phenyl (2.1×100 mm ID) column maintained at 40° C., using a gradient of A: 10 mM ammonium acetate in water and solvent B: 0.1% FA in 95% ACN)/water (table 4).
Buspirone, zolmitriptan and labetalol were detected at parent/daughter molecular mass of 386.10/122.20, 288.10/58.20 and 329.20/161.90 m/z, and a collision energy of 41, 25 and 50 eV, respectively. Retention times were 2.3, 1.3 and 2.0 min for buspirone, zolmitriptan and labetalol, respectively. Peak areas correlated linearly (r^2>0.997, 1/x^2 weighting) with buspirone and zolmitriptan concentrations in the range 0.5-1000 ng/mL. Lower limit of quantification (LLOQ) was 0.5 ng/mL for buspirone and zolmitriptan based on a signal-to-noise ratio>10:1.
The PK analysis was performed with non-linear mixed effects modelling using Phoenix NMLE 1.2 (Pharsight Corporation). A one- or two-compartment model with first-order absorption and elimination rate was fitted to the time-concentration profiles. Furthermore, model development included modelling of the data with an absorption lag-time (Tlag). To adequately characterise a potential lag-time, the plasma concentrations<LLOQ (Lower Limit of Quantification) was fixed to ½ of LLOQ (0.25 ng/mL) for the sample just prior to the first quantifiable concentration. Best model fit was evaluated based on basic goodness-of-fit plots, parameter precision, visual predictive check and objective function value. A drop in objective function value of […] for nested models with one added parameter was considered a significant improvement in model fit.

[2] = tested on: unilaterally 6-OHDA-lesioned rats; experiment: 6-OHDA rat model: L-DOPA induced AIMs and drugs screening test; format: in vivo; settings: for L-DOPA induced AIMs: Example II, 30 min before test
LID = settings: cited from earlier work
[3] = tested on: unilaterally 6-OHDA-lesioned rats; settings: zolmitriptan administered alone; WO2012/048710; cited from earlier work
[4] = batch 0614/2012, non-linear mixed effects modelling
[5] = batch 0614/2012, non-linear mixed effects modelling, value (% CV)
[6] = Example VI, buspirone 0.25 or 0.5 mg/kg s.c., tandospirone 1 or 2 mg/kg i.p., 25 min before test

Structure (SMILES): O=C1CC2(CCCC2)CC(=O)N1CCCCN1CCN(c2ncccn2)CC1 [buspirone, 8-[4-(4-pyrimidin-2-ylpiperazin-1-yl)butyl]-8-azaspiro[4.5]decane-7,9-dione]
Effect on Parkinson's disease or dyskinesia (Parkinson's disease; doses 10-60 mg/day): did not have any effects on Parkinson's disease or dyskinesia
Disability ratings (Parkinson's disease; higher doses (100 mg/day)): significant worsening of disability ratings
Effect on dyskinesia (Parkinson's disease; higher doses (100 mg/day)): reduced dyskinesia
CL/F IIV (inter-individual variability) [1, 4]: 37%
ka IIV (inter-individual variability) [1, 4]: 5.4%
tvQ/F (inter-compartmental clearance) [1, 5]: 18 (11) L/h/kg
tvTlag (absorption lag-time) [1, 5]: no observable lag-time
tvV2/F (volume of peripheral compartment) [1, 5]: 1259 (29) L/kg
tvV/F (volume of central compartment) [1, 5]: 3.9 (26) L/kg
tvka (absorption rate) [1, 5]: 1.0 (13) h^-1
tyCL/F (clearance) [1, 5]: 13 (124) L/h/kg
Time of maximum plasma concentration [1]: around 0.5 h
L-DOPA-induced dyskinesia (AIMs) ([2]; Example I, buspirone 0.5 mg/kg i.p. given alone): only partly reduced AIM
L-DOPA-induced dyskinesia (AIMs) [2, 6]: significantly reduced L-DOPA-induced dyskinesia

Structure (SMILES): Fc1ccc(-c2cncc(CNC[C@H]3CCc4ccccc4O3)c2)cc1 [sarizotan, 1-[(2R)-3,4-dihydro-2H-chromen-2-yl]-N-([5-(4-fluorophenyl)pyridin-3-yl]methyl)methanamine]
Effect on LID (LID; phase 2A study and open labeled study): reduced LID
Effect compared to placebo (LID; several large phase 2b studies): no significant effects

Structure (SMILES): O=C1[C@@H]2[C@@H]3CC[C@@H](C3)[C@@H]2C(=O)N1CCCCN1CCN(c2ncccn2)CC1 [tandospirone, (1R,2R,6S,7S)-4-{4-[4-(pyrimidin-2yl)piperazin-1-yl]butyl}-4-azatricyclo[5.2.1.02,6]decane-3,5-dione]
L-DOPA induced AIMs ([2]; tandospirone 1 mg/kg i.p. alone): partially and briefly reduce AIMs
L-DOPA induced AIMs ([2]; tandospirone 2 mg/kg i.p. alone): partially and briefly reduce AIMs
L-DOPA-induced dyskinesia (AIMs) [2, 6]: significantly reduced L-DOPA-induced dyskinesia

Time plasma concentration is sustained above limit of quantification ([1]; batch 0614/2012, LLOQ 0.5 ng/mL): 12 h
Absorption rate, slower compared to buspirone ([1]; batch 0614/2012, model): 3 fold
V/F IIV (inter-individual variability) [1, 4]: 0.1%
tvTlag (absorption lag-time) [1, 5]: 0.44 h
tvV/F (volume of central compartment) [1, 5]: 16 (62) L/kg
tvka (absorption rate) [1, 5]: 0.32 (55) h^-1
tyCL/F (clearance) [1, 5]: 7.0 (11) L/h/kg
tvTlag (absorption lag-time) ([1]; batch 0614/2012, non-linear mixed effects modelling, value (% CV), listed as Zolmitriptan): 0.44 (3.8) h
Time of maximum plasma concentration [1]: 4 h
Structure (SMILES): CN(C)CCc1c[nH]c2ccc(C[C@H]3COC(=O)N3)cc12 [zolmitriptan, (S)-4-({3-[2-(dimethylamino)ethyl]-1H-indol-5-yl}methyl)-1,3-oxazolidin-2-one]
Inhibition of LID in an animal model for LID [3]: generally fails to inhibit LID
